Reference: patent US9897592B2, “Methods for identifying arthropod repellents and attractants, and compounds and compositions identified by such methods” (The Regents of the University of California, priority 2013, dated 2018)
Counter-ions that a name gives are not always drawn.

The compounds below were run on cpA neuron (assay: Single-sensillum recording: activation of cpA neuron by odorants). Conditions: A. aegypti cpA, 0.5-s pulses, odorants 10^−2 in paraffin oil or water, solvent response subtracted.
Assay type: cell-based, Aedes aegypti
Method: FIG. 3b depicts representative traces and mean responses of the A. aegypti cpA neuron to 0.5-s pulses of 138 predicted compounds screened using single-sensillum recordings, in which odorants were diluted to 10^−2 in paraffin oil or water, and responses to solvent have been subtracted, n=2-6, and error bars are s.d.
FIG. 5f is a bar graph illustrating the mean responses of the A. aegypti cpA neuron to 0.5-s pulses of 22 newly predicted compounds screened as in FIG. 3b, where salmon bars correspond to odorants found in human odor, odorants were diluted to 10^−2 in paraffin oil or water, and responses to solvent have been subtracted, and n=2-5.
Adult female A. aegypti (Linnaeus 1762) (Rockefeller strain) A. gambiae sensu stricto Giles 1902 (G3 strain), or C. quinquefasciatus Say 1823 were tested 3-12 days post-emergence with single-sensillum extracellular recordings. Chemicals were obtained from Sigma-Aldrich at the highest purity (typically >99%) and were dissolved in paraffin oil or water. […] Response to clean beads was subtracted from the results reported. Only sensilla with cpA activity of <20 spikes s^−1 to negative control were considered for analysis.
CpA-off and sham treated mosquitoes were pre-treated for 3 min in an upended 1 L glass dish in which 100 μl of fresh butyryl chloride (1%) or paraffin oil was allowed to vaporize for 10-20 min. The odor delivery system for different screens is shown in FIG. 7b; solvent responses during the same recording session were subtracted. Inhibition screen was tested. For the ultra-prolonged activator the 3-s stimulus was delivered from a 10 ml disposable pipette using a CS-55 stimulus controller (Syntech), CO2 was delivered, and responses to subsequent odor stimuli were calculated by subtracting baseline activity 1 s prior to each stimulus. When responses to repeated pulses of cyclopentanone and CO2 were compared, baseline activity between seconds 5 and 6 following each stimulus was subtracted. Spike counting was done manually or with Igor Pro6.2 (Wavemetrics) with the Neuromatic v2.00 macro (by Jason Rothman), and peak-to-peak spike amplitudes for FIG. 8 were analysed in Clampfit 10.3 (Molecular Devices).
From the large list of cpA receptor ligands predicted from Example 3 above, 138 compounds were selected based on desirable criteria for application such as smell, presence in natural sources, human safety profile, and cost to procure. These compounds were tested individually using single-sensillum electrophysiology on the cp sensillum of female A. aegypti, according to the procedure described in Example 1 above.
For c1cnc2cccnc2c1 [1,5-naphthyridine], the “Activation (spikes s^−1)” value was 1.5 spikes s^−1. For CC(=O)c1ccc[nH]1 [1-(1H-pyrrol-2-yl)ethanone], the “Activation (spikes s^−1)” value was 1.5 spikes s^−1. In the case of CC(=O)C1=NCCS1 [1-(4,5-dihydro-1,3-thiazol-2-yl)ethanone], the “Activation (spikes s^−1)” value is reported as 8.0 spikes s^−1. Cn1cccc1 [1-methylpyrrole] was tested, and the “Activation (spikes s^−1)” value was 54.2 spikes s^−1. In the case of CCCC(=O)c1ccccc1 [1-phenylbutan-1-one], the “Activation (spikes s^−1)” value is reported as 1.5 spikes s^−1. For CCC(O)c1ccccc1 (centres unmarked) [1-phenylpropan-1-ol], the “Activation (spikes s^−1)” value was −3.5 spikes s^−1. CC(=O)c1ccncc1 [1-pyridin-4-ylethanone] was tested, and the “Activation (spikes s^−1)” value was 3.5 spikes s^−1. For O=Cc1cnc[nH]1 [1H-imidazole-5-carbaldehyde], the “Activation (spikes s^−1)” value was 2.5 spikes s^−1. With c1cc[nH]c1 [1H-pyrrole] the “Activation (spikes s^−1)” value was 89.8 spikes s^−1. In the case of CCc1nccnc1CC [2,3-diethylpyrazine], the “Activation (spikes s^−1)” value is reported as −15.5 spikes s^−1. In the case of C=C(C)C(=C)C [2,3-dimethylbuta-1,3-diene], the “Activation (spikes s^−1)” value is reported as 10.0 spikes s^−1. For CC1CCCC(C)N1 (centres unmarked) [2,6-dimethylpiperidine], the “Activation (spikes s^−1)” value was 2.5 spikes s^−1. Cc1cncc(C)n1 [2,6-dimethylpyrazine] was tested, and the “Activation (spikes s^−1)” value was 14.8 spikes s^−1. CC(C)Cc1nccs1 [2-(2-methylpropyl)-1,3-thiazole] was tested, and the “Activation (spikes s^−1)” value was 12.0 spikes s^−1. With Cc1ncsc1CCO [2-(4-methyl-1,3-thiazol-5-yl)ethanol] the “Activation (spikes s^−1)” value was 4.5 spikes s^−1. With CCOCc1cnccn1 [2-(ethoxymethyl)pyrazine] the “Activation (spikes s^−1)” value was −8.0 spikes s^−1. For CC(C)SCc1ccco1 [2-(propan-2-ylsulfanylmethyl)furan], the “Activation (spikes s^−1)” value was −0.5 spikes s^−1. C[N+](C)(C)CC(=O)[O-] [2-(trimethylazaniumyl)acetate] was tested, and the “Activation (spikes s^−1)” value was 2.5 spikes s^−1. With CCC(C)C(N)C(=O)O (centres unmarked) [2-amino-3-methylpentanoic acid] the “Activation (spikes s^−1)” value was −2.5 spikes s^−1. For CCC(N)C(=O)O (centres unmarked) [2-aminobutanoic acid], the “Activation (spikes s^−1)” value was −3.0 spikes s^−1. In the case of CC(N)C(=O)O (centres unmarked) [2-aminopropanoic acid], the “Activation (spikes s^−1)” value is reported as −1.5 spikes s^−1. For CCC(C)c1nccnc1OC (centres unmarked) [2-butan-2-yl-3-methoxypyrazine], the “Activation (spikes s^−1)” value was −10.5 spikes s^−1. With CCOC1CCCO1 (centres unmarked) [2-ethoxyoxolane] the “Activation (spikes s^−1)” value was 6.5 spikes s^−1. With CCc1ccc[nH]1 [2-ethyl-1H-pyrrole] the “Activation (spikes s^−1)” value was 8.5 spikes s^−1. With CCc1nccnc1OC [2-ethyl-3-methoxypyrazine] the “Activation (spikes s^−1)” value was −17.5 spikes s^−1. For CCc1nccnc1C [2-ethyl-3-methylpyrazine], the “Activation (spikes s^−1)” value was −7.5 spikes s^−1. With CCc1cnccn1 [2-ethylpyrazine] the “Activation (spikes s^−1)” value was 34.5 spikes s^−1. COc1nccnc1C [2-methoxy-3-methylpyrazine] was tested, and the “Activation (spikes s^−1)” value was −27.5 spikes s^−1. Cc1nccnc1CC(C)C [2-methyl-3-(2-methylpropyl)pyrazine] was tested, and the “Activation (spikes s^−1)” value was 1.0 spikes s^−1. For CSc1ccoc1C [2-methyl-3-methylsulfanylfuran], the “Activation (spikes s^−1)” value was 12.0 spikes s^−1. In the case of Cc1ccccc1C=O [2-methylbenzaldehyde], the “Activation (spikes s^−1)” value is reported as 19.0 spikes s^−1. With CCC(C)C=O (centres unmarked) [2-methylbutanal] the “Activation (spikes s^−1)” value was 33.5 spikes s^−1. Cc1ccco1 [2-methylfuran] was tested, and the “Activation (spikes s^−1)” value was 48.0 spikes s^−1. In the case of CC1OCCC1=O (centres unmarked) [2-methyloxolan-3-one], the “Activation (spikes s^−1)” value is reported as 58.4 spikes s^−1. With CCC=C(C)C=O [2-methylpent-2-enal] the “Activation (spikes s^−1)” value was 36.5 spikes s^−1. In the case of C/C=C\C(=O)OCC(C)C [2-methylpropyl (Z)-but-2-enoate], the “Activation (spikes s^−1)” value is reported as −5.0 spikes s^−1. For CC(C)COC=O [2-methylpropyl formate], the “Activation (spikes s^−1)” value was 48.0 spikes s^−1. CCC(=O)C(=O)O [2-oxobutanoic acid] was tested, and the “Activation (spikes s^−1)” value was 7.0 spikes s^−1. For CCCC(=O)C(=O)O [2-oxopentanoic acid], the “Activation (spikes s^−1)” value was 0.0 spikes s^−1. In the case of CCCCCc1ccccn1 [2-pentylpyridine], the “Activation (spikes s^−1)” value is reported as −6.5 spikes s^−1. For CC(C)CC(=O)OCCc1ccccc1 [2-phenylethyl 3-methylbutanoate], the “Activation (spikes s^−1)” value was 4.5 spikes s^−1. With C/C=C(\C)C(=O)OCCc1ccccc1 [2-phenylethyl (E)-2-methylbut-2-enoate] the “Activation (spikes s^−1)” value was 2.5 spikes s^−1. With CCCC(=O)OCCc1ccccc1 [2-phenylethyl butanoate] the “Activation (spikes s^−1)” value was −5.5 spikes s^−1. In the case of CCC(=O)OCCc1ccccc1 [2-phenylethyl propanoate], the “Activation (spikes s^−1)” value is reported as −1.5 spikes s^−1. In the case of CC1CC(=O)C(=O)C1C (centres unmarked) [3,4-dimethylcyclopentane-1,2-dione], the “Activation (spikes s^−1)” value is reported as 1.5 spikes s^−1. With Cc1cncc(C)c1 [3,5-dimethylpyridine] the “Activation (spikes s^−1)” value was 7.5 spikes s^−1. In the case of CC(C)=CCCC(C)CCO (centres unmarked) [3,7-dimethyloct-6-en-1-ol], the “Activation (spikes s^−1)” value is reported as 1.5 spikes s^−1. In the case of CC(C)=CCCC(C)CC(=O)O (centres unmarked) [3,7-dimethyloct-6-enoic acid], the “Activation (spikes s^−1)” value is reported as 6.0 spikes s^−1. CC(C)Cc1cccnc1 [3-(2-methylpropyl)pyridine] was tested, and the “Activation (spikes s^−1)” value was 5.5 spikes s^−1. With NCCC(=O)O [3-aminopropanoic acid] the “Activation (spikes s^−1)” value was 8.0 spikes s^−1. CCc1cccnc1 [3-ethylpyridine] was tested, and the “Activation (spikes s^−1)” value was 42.5 spikes s^−1. With CC(=O)C(C)O (centres unmarked) [3-hydroxybutan-2-one] the “Activation (spikes s^−1)” value was 0.5 spikes s^−1. With CC(C)=CC=O [3-methylbut-2-enal] the “Activation (spikes s^−1)” value was 55.5 spikes s^−1. For CC(C)=CC(=O)O [3-methylbut-2-enoic acid], the “Activation (spikes s^−1)” value was 0.5 spikes s^−1. For CC(C)CCO [3-methylbutan-1-ol], the “Activation (spikes s^−1)” value was 51.8 spikes s^−1. For CC(C)CC=O [3-methylbutanal], the “Activation (spikes s^−1)” value was 60.2 spikes s^−1. CC(C)CC#N [3-methylbutanenitrile] was tested, and the “Activation (spikes s^−1)” value was 75.8 spikes s^−1. With CC1=CC(O)CCC1 (centres unmarked) [3-methylcyclohex-2-en-1-ol] the “Activation (spikes s^−1)” value was 23.0 spikes s^−1. In the case of CC1=CC(=O)CC1 [3-methylcyclopent-2-en-1-one], the “Activation (spikes s^−1)” value is reported as 31.0 spikes s^−1. With CC1CCC(=O)C1=O (centres unmarked) [3-methylcyclopentane-1,2-dione] the “Activation (spikes s^−1)” value was 3.5 spikes s^−1. With CCC(C)CC(=O)O (centres unmarked) [3-methylpentanoic acid] the “Activation (spikes s^−1)” value was 3.7 spikes s^−1. In the case of Cc1cccc(O)c1 [3-methylphenol], the “Activation (spikes s^−1)” value is reported as 44.0 spikes s^−1. In the case of OCCCc1ccccc1 [3-phenylpropan-1-ol], the “Activation (spikes s^−1)” value is reported as −3.0 spikes s^−1. In the case of CCc1ccc(C=O)cc1 [4-ethylbenzaldehyde], the “Activation (spikes s^−1)” value is reported as 2.5 spikes s^−1. With CC1=C(O)C(=O)OC1C (centres unmarked) [4-hydroxy-2,3-dimethyl-2H-furan-5-one] the “Activation (spikes s^−1)” value was 9.0 spikes s^−1. For CC1(O)CCOC(=O)C1 (centres unmarked) [4-hydroxy-4-methyloxan-2-one], the “Activation (spikes s^−1)” value was −1.0 spikes s^−1. In the case of CC(=O)CC(C)(C)O [4-hydroxy-4-methylpentan-2-one], the “Activation (spikes s^−1)” value is reported as 2.0 spikes s^−1. For Cc1cscn1 [4-methyl-1,3-thiazole], the “Activation (spikes s^−1)” value was 111.8 spikes s^−1. For CC(C)=CC1CC(C)CCO1 (centres unmarked) [4-methyl-2-(2-methylprop-1-enyl)oxane], the “Activation (spikes s^−1)” value was 1.5 spikes s^−1. With CCCC1OCC(C)O1 (centres unmarked) [4-methyl-2-propyl-1,3-dioxolane] the “Activation (spikes s^−1)” value was 13.0 spikes s^−1. CC(=O)C=C(C)C [4-methylpent-3-en-2-one] was tested, and the “Activation (spikes s^−1)” value was 34.0 spikes s^−1. In the case of CC(C)CC(C)O (centres unmarked) [4-methylpentan-2-ol], the “Activation (spikes s^−1)” value is reported as 24.0 spikes s^−1. For CC(=O)CCC(=O)O [4-oxopentanoic acid], the “Activation (spikes s^−1)” value was 4.5 spikes s^−1. With CC(=O)CCc1ccccc1 [4-phenylbutan-2-one] the “Activation (spikes s^−1)” value was 0.5 spikes s^−1.

Same assay, conditions: cpA neuron; 20 compounds from the top 200 SVM ligand predictions; negative values = inhibition; N = 4
For C=CCCC [1-pentene], the “Activation (spikes s−1)” value was 10.3 spikes s−1. With Cc1csc(C)n1 [2,4-dimethyl-1,3-thiazole] the “Activation (spikes s−1)” value was 39.0 spikes s−1. Cc1ccc(C)s1 [2,5-dimethylthiophene] was tested, and the “Activation (spikes s−1)” value was 0.3 spikes s−1. CCc1cccs1 [2-ethylthiophene] was tested, and the “Activation (spikes s−1)” value was 9.3 spikes s−1. CC1CCCO1 (centres unmarked) [2-methyloxolane] was tested, and the “Activation (spikes s−1)” value was 82.5 spikes s−1. With CC(C)CO [2-methylpropan-1-ol] the “Activation (spikes s−1)” value was 95.0 spikes s−1. In the case of C=C(C)CCO [3-methylbut-3-en-1-ol], the “Activation (spikes s−1)” value is reported as 64.3 spikes s−1. C=CCSC [3-methylsulfanylprop-1-ene] was tested, and the “Activation (spikes s−1)” value was 52.8 spikes s−1. For Cc1ccsc1 [3-methylthiophene], the “Activation (spikes s−1)” value was 33.8 spikes s−1.
